# Test system: GI-101A tumors
# Set-up: species or system nude mice
# Conditions: mouse, in vivo
row,Structure (SMILES),Effect on tumor growth
1,"N.N.[Cl][Pt][Cl] [Cisplatin, cis-diamminedichloroplatinum]","decreased the rate of tumor growth, but did not shrink tumors"
2,"COc1cccc2c1C(=O)c1c(O)c3c(c(O)c1C2=O)C[C@@](O)(C(=O)CO)C[C@@H]3O[C@H]1C[C@H](N)[C@H](O)[C@H](C)O1 [Doxorubicin, doxorubicin]",did not have any effect on the rate of tumor growth

# Reference: patent publication US20090098529A1 (priority 2006, published 2009)
